Measured values reported in article PMC6831664, “Synthesis of new isoquinoline-base-oxadiazole derivatives as potent inhibitors of thymidine phosphorylase and molecular docking study” (Scientific Reports, 2019).

Target: thymidine phosphorylase (Escherichia coli, UniProt P07650)
Test: In vitro thymidine phosphorylase inhibition (spectrophotometric, absorbance at 290 nm)
Format: biochemical, human and E. coli
Conditions: for IC50: read-out: IC50 value, thymidine phosphorylase inhibitory activity
Description: The desired activity of thymidine phosphorylase under this protocol was carried out with slight modification in the method described by Krenitsky and Bush in 1979[46],[47]. Here, TP activity was determined through spectrophotometrically by absorbance at 290 nm. Although the whole reaction mixture of 200 µL have the limit of 145 µL of potassium phosphate buffer (pH 7.4, 50 mM), 30 µL of enzyme (human and E. coli) by concentration 0.05 and 0.002 U, distinectly, followed by incubation through 5 µL of test materials (0.075, 0.15, 0.3 and 0.5 mM) at 25 °C for 10 min in triplet reader. Subsequently, pre-read at 290 nm was taken to conclude the absorbance of concern substrate particles. The crave substrate “thyimidin” (20 µL, 1.5 mM), was then dissolved in the buffer (potassium phosphate), followed by instant addition to plate with constant read after every 10, 20 and 30 min in micro plate reader (spectra max, molecular devices, CA, USA). All the assay were implemented in triplicate under positive control of 7-Deazxanthine.

Sequence of thymidine phosphorylase (P07650 whole entry): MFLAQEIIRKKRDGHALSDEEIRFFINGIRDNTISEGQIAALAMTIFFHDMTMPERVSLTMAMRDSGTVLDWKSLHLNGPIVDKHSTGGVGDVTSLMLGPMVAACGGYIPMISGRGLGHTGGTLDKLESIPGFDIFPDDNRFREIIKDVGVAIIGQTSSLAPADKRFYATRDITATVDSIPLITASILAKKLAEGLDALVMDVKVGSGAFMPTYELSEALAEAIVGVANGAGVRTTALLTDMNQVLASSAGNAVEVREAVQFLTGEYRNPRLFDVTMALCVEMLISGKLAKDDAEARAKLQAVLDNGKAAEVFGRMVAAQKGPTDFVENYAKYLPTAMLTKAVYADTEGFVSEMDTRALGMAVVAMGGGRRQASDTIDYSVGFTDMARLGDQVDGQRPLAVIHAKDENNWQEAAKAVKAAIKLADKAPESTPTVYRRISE

| SMILES | IC50 | inhibitory potential compared with the standard 7-Deazaxanthine (in words) |
| --- | --- | --- |
| CN(C)c1ccc(C=NNC(=O)c2ccc(-c3nnc(-c4cc5ccccc5cn4)o3)cc2)cc1 [analogue 8, N’-(4-(dimethylamino)benzylidene)-4-(5-(isoquinolin-3-yl)-1,3,4-oxadiazol-2-yl)benzohydrazide] | 18.8 ± 0.5 µM | – |
| COc1ccc(Br)cc1C=NNC(=O)c1ccc(-c2nnc(-c3cc4ccccc4cn3)o2)cc1 [analogue 7, N’-(5-bromo-2-methoxybenzylidene)-4-(5-(isoquinolin-3-yl)-1,3,4-oxadiazol-2-yl)benzohydrazide] | 36.7 ± 0.9 µM | – |
| Nc1cccc(C=NNC(=O)c2ccc(-c3nnc(-c4cc5ccccc5cn4)o3)cc2)c1 [analogue 10, N’-(3-aminobenzylidene)-4-(5-(isoquinolin-3-yl)-1,3,4-oxadiazol-2-yl)benzohydrazide] | 1.1 ± 0.1 µM | – |
| COc1ccc(C=NNC(=O)c2ccc(-c3nnc(-c4cc5ccccc5cn4)o3)cc2)c(OC)c1OC [analogue 19, 4-(5-(isoquinolin-3-yl)-1,3,4-oxadiazol-2-yl)-N’-(2,3,4-trimethoxybenzylidene)benzohydrazide] | 54.6 ± 1.5 µM | good inhibitory activity |
| COc1cc(C=NNC(=O)c2ccc(-c3nnc(-c4cc5ccccc5cn4)o3)cc2)cc(OC)c1OC [analogue 15, 4-(5-(isoquinolin-3-yl)-1,3,4-oxadiazol-2-yl)-N’-(3,4,5-trimethoxybenzylidene)benzohydrazide] | 47.3 ± 1.2 µM | good inhibitory activity |
| N#Cc1cccc(C=NNC(=O)c2ccc(-c3nnc(-c4cc5ccccc5cn4)o3)cc2)c1 [analogue 14, N’-(3-cyanobenzylidene)-4-(5-(isoquinolin-3-yl)-1,3,4-oxadiazol-2-yl)benzohydrazide] | 27.4 ± 0.7 µM | – |
| O=C(NN=Cc1ccc(O)c(O)c1O)c1ccc(-c2nnc(-c3cc4ccccc4cn3)o2)cc1 [analogue 20, 4-(5-(isoquinolin-3-yl)-1,3,4-oxadiazol-2-yl)-N’-(2,3,4-trihydroxybenzylidene)benzohydrazide] | 1.1 ± 0.05 µM | – |
| COc1cc(C=NNC(=O)c2ccc(-c3nnc(-c4cc5ccccc5cn4)o3)cc2)ccc1O [analogue 13, N’-(4-hydroxy-3-methoxybenzylidene)-4-(5-(isoquinolin-3-yl)-1,3,4-oxadiazol-2-yl)benzohydrazide] | 6 ± 0.2 µM | – |
| O=C(NN=Cc1ccc(Cl)cc1Cl)c1ccc(-c2nnc(-c3cc4ccccc4cn3)o2)cc1 [analogue 3, N’-(2,4-dichlorobenzylidene)-4-(5-(isoquinolin-3-yl)-1,3,4-oxadiazol-2-yl)benzohydrazide] | 3.3 ± 0.1 µM | – |
| CC(=NNC(=O)c1ccc(-c2nnc(-c3cc4ccccc4cn3)o2)cc1)c1ccc([N+](=O)[O-])cc1 [analogue 5, 4-(5-(isoquinolin-3-yl)-1,3,4-oxadiazol-2-yl)-N’-(1-(4-nitrophenyl)ethylidene)benzohydrazide] | 14.6 ± 0.4 µM | – |
| N#Cc1ccccc1C=NNC(=O)c1ccc(-c2nnc(-c3cc4ccccc4cn3)o2)cc1 [analogue 16, N’-(2-cyanobenzylidene)-4-(5-(isoquinolin-3-yl)-1,3,4-oxadiazol-2-yl)benzohydrazide] | 18.5 ± 0.5 µM | – |
| O=C(NN=Cc1ccccc1[N+](=O)[O-])c1ccc(-c2nnc(-c3cc4ccccc4cn3)o2)cc1 [analogue 1, 4-(5-(isoquinolin-3-yl)-1,3,4-oxadiazol-2-yl)-N’-(2-nitrobenzylidene)benzohydrazide] | 6.3 ± 0.2 µM | – |
| COc1ccc(C=NNC(=O)c2ccc(-c3nnc(-c4cc5ccccc5cn4)o3)cc2)cc1O [analogue 12, N’-(3-hydroxy-4-methoxybenzylidene)-4-(5-(isoquinolin-3-yl)-1,3,4-oxadiazol-2-yl)benzohydrazide] | 4.6 ± 0.1 µM | – |
| O=C(NN=Cc1ccc(COc2ccccc2)cc1)c1ccc(-c2nnc(-c3cc4ccccc4cn3)o2)cc1 [analogue 4, 4-(5-(isoquinolin-3-yl)-1,3,4-oxadiazol-2-yl)-N’-(4-(phenoxymethyl)benzylidene)benzohydrazide] | 28.3 ± 0.5 µM | – |
| COc1cccc(C=NNC(=O)c2ccc(-c3nnc(-c4cc5ccccc5cn4)o3)cc2)c1O [analogue 18, N’-(2-hydroxy-3-methoxybenzylidene)-4-(5-(isoquinolin-3-yl)-1,3,4-oxadiazol-2-yl)benzohydrazide] | 7.3 ± 0.2 µM | – |
| COc1cc(C=NNC(=O)c2ccc(-c3nnc(-c4cc5ccccc5cn4)o3)cc2)cc(OC)c1O [analogue 11, N’-(4-hydroxy-3,5-dimethoxybenzylidene)-4-(5-(isoquinolin-3-yl)-1,3,4-oxadiazol-2-yl)benzohydrazide] | 5.3 ± 0.2 µM | – |
| O=C(NN=Cc1ccc(Cl)cc1)c1ccc(-c2nnc(-c3cc4ccccc4cn3)o2)cc1 [analogue 6, N’-(4-chlorobenzylidene)-4-(5-(isoquinolin-3-yl)-1,3,4-oxadiazol-2-yl)benzohydrazide] | 16.4 ± 0.5 µM | – |
| N#Cc1ccc(C=NNC(=O)c2ccc(-c3nnc(-c4cc5ccccc5cn4)o3)cc2)cc1 [analogue 17, N’-(4-cyanobenzylidene)-4-(5-(isoquinolin-3-yl)-1,3,4-oxadiazol-2-yl)benzohydrazide] | 22.1 ± 0.5 µM | – |
| O=C(NN=Cc1cc(Cl)cc(Cl)c1O)c1ccc(-c2nnc(-c3cc4ccccc4cn3)o2)cc1 [analogue 9, N’-(3,5-dichloro-2-hydroxybenzylidene)-4-(5-(isoquinolin-3-yl)-1,3,4-oxadiazol-2-yl)benzohydrazide] | 2.4 ± 0.1 µM | – |
| O=C(NN=Cc1c2ccccc2cc2ccccc12)c1ccc(-c2nnc(-c3cc4ccccc4cn3)o2)cc1 [analogue 2, N’-(anthracen-9-ylmethylene)-4-(5-(isoquinolin-3-yl)-1,3,4-oxadiazol-2-yl)benzohydrazide] | 39.4 ± 0.9 µM | good inhibitory activity |
